From paper PMC11233931, “Remodeling tumor‐associated macrophage for anti‐cancer effects by rational design of irreversible inhibition of mitogen‐activated protein kinase‐activated protein kinase 2” (MedComm, 2024)

Assays:
Assay in all cases: Eurofins kinase selectivity profile against 380 other human recombinant kinases (Table S2)
Format in all cases: biochemical
[1] = molecular target: T1, 380 human recombinant protein kinases (Homo sapiens, UniProt Q9NQU5); conditions: PAK6(h), read-out: Inhibition rate
T1 construct: purchased Eurofins (Celle Lévescault)
Procedure, shortened: (§1)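 Commercial selectivity screen of the test compound against a panel of 380 human recombinant protein kinases, run by an outside contractor at several compound concentrations to check whether its potency was specific for MK2.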

[2] = molecular target: T2, 380 human recombinant protein kinases (Homo sapiens, UniProt P51817); conditions: PrKX(h), read-out: Inhibition rate
T2 construct: purchased Eurofins (Celle Lévescault)
T2 sequence (P51817 1-358): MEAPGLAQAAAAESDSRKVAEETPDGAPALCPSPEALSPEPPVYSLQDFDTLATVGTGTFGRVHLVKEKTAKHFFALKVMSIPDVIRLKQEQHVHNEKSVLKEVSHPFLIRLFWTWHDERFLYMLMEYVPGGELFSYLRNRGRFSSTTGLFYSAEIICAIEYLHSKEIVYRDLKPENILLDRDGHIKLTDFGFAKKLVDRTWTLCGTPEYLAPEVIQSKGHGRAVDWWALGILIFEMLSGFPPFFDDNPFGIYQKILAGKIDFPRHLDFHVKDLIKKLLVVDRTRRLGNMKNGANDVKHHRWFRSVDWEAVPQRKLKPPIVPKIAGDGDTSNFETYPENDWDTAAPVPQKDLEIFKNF
Procedure, shortened: as §1

[3] = molecular target: T3, 380 human recombinant protein kinases (Homo sapiens, UniProt P04629); conditions: TrkA(h), read-out: Inhibition rate (%)
T3 construct: purchased Eurofins (Celle Lévescault)
Procedure, shortened: as §1

[4] = molecular target: T4, 380 human recombinant protein kinases (Homo sapiens, UniProt Q8N4C8); conditions: MINK(h), read-out: Inhibition rate
T4 construct: purchased Eurofins (Celle Lévescault)
Procedure, shortened: as §1

[5] = molecular target: T5, 380 human recombinant protein kinases (Homo sapiens, UniProt Q9HC98); conditions: NEK6(h), read-out: Inhibition rate
T5 construct: purchased Eurofins (Celle Lévescault)
Procedure, shortened: as §1

[6] = molecular target: T6, 380 human recombinant protein kinases (Homo sapiens, UniProt Q13557); conditions: CaMKIIδ(h), read-out: Inhibition rate
T6 construct: purchased Eurofins (Celle Lévescault)
Procedure, shortened: as §1

[7] = molecular target: T7, 380 human recombinant protein kinases (Homo sapiens, UniProt P54762); conditions: EphB1(h), read-out: Inhibition rate
T7 construct: purchased Eurofins (Celle Lévescault)
T7 sequence (P54762 18-984): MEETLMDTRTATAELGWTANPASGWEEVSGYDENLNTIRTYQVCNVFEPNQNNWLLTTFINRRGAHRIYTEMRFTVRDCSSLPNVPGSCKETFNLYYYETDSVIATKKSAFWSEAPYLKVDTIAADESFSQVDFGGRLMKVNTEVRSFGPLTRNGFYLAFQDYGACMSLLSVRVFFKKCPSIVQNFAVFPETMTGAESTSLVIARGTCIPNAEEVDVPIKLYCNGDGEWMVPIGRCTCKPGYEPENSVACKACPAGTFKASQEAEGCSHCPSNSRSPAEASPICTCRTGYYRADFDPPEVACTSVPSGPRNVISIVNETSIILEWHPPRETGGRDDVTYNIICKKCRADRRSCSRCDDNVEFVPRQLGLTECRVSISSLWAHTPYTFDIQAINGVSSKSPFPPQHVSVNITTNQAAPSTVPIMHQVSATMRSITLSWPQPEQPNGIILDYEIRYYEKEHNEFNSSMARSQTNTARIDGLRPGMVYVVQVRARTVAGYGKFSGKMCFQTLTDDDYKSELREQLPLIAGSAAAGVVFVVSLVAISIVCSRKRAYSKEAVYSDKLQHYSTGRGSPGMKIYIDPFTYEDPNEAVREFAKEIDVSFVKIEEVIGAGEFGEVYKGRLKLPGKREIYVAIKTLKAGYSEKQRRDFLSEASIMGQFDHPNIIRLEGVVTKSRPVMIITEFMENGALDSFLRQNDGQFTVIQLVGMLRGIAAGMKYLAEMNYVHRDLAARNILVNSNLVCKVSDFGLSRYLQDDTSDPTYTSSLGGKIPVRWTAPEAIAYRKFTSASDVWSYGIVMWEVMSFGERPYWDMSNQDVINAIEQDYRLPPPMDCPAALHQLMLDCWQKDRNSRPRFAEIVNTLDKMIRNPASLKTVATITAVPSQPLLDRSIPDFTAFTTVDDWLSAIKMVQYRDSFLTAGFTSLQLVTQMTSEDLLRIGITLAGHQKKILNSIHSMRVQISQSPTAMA
Procedure, shortened: as §1

[8] = molecular target: T8, 380 human recombinant protein kinases (Homo sapiens, UniProt P00519, M351T); conditions: Abl (M351T)(h), read-out: Inhibition rate
T8 construct: purchased Eurofins (Celle Lévescault)
Procedure, shortened: as §1

[9] = molecular target: T9, 380 human recombinant protein kinases (Homo sapiens, UniProt Q96NX5); conditions: CaMKIγ(h), read-out: Inhibition rate
T9 construct: purchased Eurofins (Celle Lévescault)
Procedure, shortened: as §1

[10] = molecular target: T10, 380 human recombinant protein kinases (Homo sapiens, UniProt Q96GD4); conditions: Aurora-B(h), read-out: Inhibition rate
T10 construct: purchased Eurofins (Celle Lévescault)
Procedure, shortened: as §1

[11] = molecular target: T11, 380 human recombinant protein kinases (Homo sapiens, UniProt Q14012); conditions: CaMKI(h), read-out: Inhibition rate
T11 construct: purchased Eurofins (Celle Lévescault)
Procedure, shortened: as §1

[12] = molecular target: T12, 380 human recombinant protein kinases (Homo sapiens, UniProt Q16512); conditions: PRK1(h), read-out: Inhibition rate
T12 construct: purchased Eurofins (Celle Lévescault)
Procedure, shortened: as §1

T6 sequence (Q13557 whole entry): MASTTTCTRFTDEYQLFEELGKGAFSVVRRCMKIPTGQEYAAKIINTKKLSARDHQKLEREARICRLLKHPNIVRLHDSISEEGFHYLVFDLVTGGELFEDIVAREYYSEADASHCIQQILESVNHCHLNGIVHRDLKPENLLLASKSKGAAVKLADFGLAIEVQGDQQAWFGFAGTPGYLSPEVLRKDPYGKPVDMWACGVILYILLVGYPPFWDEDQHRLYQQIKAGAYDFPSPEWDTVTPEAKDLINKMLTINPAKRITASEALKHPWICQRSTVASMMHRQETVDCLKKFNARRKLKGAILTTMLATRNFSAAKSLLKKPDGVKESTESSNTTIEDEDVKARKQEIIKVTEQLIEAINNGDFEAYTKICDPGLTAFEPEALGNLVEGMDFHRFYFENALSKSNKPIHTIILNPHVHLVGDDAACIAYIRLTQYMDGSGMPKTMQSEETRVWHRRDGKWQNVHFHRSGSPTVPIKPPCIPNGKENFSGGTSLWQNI
T3 sequence (P04629 33-796): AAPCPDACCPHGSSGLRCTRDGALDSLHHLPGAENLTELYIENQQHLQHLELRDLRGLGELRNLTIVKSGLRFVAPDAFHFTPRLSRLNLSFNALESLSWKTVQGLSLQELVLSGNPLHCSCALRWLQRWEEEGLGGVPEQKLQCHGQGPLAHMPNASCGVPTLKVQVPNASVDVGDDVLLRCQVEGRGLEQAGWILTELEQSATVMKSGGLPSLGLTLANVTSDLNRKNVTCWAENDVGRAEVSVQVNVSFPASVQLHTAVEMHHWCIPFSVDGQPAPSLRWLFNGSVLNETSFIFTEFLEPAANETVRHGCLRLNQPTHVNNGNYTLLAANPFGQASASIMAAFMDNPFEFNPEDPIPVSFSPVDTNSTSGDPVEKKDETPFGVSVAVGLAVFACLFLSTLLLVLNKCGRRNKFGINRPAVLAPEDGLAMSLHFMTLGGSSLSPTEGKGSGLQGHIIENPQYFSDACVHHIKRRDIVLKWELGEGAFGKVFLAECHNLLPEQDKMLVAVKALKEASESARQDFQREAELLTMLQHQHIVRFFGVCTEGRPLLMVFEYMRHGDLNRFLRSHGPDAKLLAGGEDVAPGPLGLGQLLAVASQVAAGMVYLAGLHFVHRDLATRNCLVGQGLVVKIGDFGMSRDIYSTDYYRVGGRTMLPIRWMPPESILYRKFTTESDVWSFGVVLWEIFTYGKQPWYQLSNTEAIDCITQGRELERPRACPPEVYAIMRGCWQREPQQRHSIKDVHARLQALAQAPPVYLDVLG
T1 sequence (Q9NQU5 whole entry): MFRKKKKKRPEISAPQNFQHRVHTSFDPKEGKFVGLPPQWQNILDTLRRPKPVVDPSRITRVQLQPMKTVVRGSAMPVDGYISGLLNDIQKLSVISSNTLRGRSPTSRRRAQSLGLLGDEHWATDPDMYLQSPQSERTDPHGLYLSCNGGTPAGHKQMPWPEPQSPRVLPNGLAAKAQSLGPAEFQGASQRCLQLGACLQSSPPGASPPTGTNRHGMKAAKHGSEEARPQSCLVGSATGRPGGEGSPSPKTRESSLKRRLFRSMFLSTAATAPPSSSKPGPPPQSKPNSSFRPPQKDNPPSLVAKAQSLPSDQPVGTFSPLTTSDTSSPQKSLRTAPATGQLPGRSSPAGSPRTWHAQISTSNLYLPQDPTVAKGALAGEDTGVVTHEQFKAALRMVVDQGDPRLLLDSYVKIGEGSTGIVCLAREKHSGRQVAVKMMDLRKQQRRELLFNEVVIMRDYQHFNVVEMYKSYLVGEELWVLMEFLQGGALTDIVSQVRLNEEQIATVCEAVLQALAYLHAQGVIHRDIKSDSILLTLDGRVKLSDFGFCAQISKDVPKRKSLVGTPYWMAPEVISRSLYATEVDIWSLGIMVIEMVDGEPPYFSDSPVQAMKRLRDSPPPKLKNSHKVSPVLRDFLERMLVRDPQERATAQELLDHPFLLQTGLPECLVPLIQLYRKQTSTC
T12 sequence (Q16512 whole entry): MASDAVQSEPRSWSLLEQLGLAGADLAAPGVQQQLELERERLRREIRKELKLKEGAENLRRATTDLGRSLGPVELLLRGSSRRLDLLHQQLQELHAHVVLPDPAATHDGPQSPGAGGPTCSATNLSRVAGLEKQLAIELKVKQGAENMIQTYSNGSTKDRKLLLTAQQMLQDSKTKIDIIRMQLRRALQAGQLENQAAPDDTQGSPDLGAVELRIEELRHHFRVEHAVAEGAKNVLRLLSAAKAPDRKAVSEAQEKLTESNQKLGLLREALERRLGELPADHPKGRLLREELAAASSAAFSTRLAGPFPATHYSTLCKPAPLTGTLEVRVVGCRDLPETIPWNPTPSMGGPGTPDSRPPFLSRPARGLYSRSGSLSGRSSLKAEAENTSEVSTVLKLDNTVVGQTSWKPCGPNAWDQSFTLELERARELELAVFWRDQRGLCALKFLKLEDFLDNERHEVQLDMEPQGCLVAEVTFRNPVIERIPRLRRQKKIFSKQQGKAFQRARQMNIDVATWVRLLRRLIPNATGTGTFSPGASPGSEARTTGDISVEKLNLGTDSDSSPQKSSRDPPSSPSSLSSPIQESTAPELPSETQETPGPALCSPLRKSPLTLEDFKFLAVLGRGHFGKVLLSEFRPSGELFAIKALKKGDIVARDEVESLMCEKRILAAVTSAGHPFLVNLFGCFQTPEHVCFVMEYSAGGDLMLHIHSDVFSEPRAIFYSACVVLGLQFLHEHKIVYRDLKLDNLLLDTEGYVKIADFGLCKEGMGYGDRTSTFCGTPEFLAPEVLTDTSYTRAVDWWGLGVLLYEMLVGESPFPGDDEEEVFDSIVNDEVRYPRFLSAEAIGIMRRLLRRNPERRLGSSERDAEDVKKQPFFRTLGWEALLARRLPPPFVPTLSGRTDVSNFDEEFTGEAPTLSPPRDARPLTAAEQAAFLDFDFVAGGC
T11 sequence (Q14012 whole entry): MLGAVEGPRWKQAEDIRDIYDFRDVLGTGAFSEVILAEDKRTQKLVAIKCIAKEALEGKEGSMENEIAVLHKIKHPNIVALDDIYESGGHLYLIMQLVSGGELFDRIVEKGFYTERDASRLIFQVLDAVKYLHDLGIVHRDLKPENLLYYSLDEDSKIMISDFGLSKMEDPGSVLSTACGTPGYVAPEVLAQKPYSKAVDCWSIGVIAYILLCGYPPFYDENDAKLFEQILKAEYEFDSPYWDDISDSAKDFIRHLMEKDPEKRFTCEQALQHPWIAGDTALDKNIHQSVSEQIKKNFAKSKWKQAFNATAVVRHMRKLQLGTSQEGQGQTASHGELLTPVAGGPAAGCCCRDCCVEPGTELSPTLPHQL
T4 sequence (Q8N4C8 whole entry): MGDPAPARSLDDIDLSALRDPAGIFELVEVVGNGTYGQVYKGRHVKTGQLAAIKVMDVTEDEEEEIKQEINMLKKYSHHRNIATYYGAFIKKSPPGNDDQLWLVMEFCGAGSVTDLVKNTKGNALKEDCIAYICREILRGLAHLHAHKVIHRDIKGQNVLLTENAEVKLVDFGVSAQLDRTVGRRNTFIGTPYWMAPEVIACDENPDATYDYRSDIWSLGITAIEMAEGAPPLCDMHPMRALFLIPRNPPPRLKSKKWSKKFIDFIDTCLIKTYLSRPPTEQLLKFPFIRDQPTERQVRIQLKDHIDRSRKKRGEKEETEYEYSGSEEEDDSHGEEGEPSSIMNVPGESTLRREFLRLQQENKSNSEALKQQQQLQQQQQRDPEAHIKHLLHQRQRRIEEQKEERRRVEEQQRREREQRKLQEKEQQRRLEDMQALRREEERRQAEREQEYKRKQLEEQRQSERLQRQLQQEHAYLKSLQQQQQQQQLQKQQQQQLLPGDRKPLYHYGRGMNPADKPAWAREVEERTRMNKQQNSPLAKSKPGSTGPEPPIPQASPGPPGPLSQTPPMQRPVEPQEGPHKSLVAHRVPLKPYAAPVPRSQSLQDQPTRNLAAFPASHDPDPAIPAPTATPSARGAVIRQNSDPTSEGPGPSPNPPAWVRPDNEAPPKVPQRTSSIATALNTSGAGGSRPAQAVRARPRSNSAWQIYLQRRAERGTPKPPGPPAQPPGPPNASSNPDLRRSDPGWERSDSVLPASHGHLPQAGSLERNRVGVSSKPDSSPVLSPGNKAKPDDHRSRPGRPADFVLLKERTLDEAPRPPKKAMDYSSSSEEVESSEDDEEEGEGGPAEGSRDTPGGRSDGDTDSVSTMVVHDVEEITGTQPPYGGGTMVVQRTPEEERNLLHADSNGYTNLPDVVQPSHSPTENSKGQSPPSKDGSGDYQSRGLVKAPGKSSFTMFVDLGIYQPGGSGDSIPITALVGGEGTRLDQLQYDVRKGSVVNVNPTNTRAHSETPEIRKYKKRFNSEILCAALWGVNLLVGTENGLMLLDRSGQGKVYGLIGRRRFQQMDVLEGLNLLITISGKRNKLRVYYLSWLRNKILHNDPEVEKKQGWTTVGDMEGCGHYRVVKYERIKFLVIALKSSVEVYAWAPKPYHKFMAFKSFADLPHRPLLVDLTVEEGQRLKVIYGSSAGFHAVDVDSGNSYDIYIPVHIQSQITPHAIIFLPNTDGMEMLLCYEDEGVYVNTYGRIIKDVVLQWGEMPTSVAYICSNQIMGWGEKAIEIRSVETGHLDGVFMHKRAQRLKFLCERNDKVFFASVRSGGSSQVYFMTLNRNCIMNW
T5 sequence (Q9HC98 whole entry): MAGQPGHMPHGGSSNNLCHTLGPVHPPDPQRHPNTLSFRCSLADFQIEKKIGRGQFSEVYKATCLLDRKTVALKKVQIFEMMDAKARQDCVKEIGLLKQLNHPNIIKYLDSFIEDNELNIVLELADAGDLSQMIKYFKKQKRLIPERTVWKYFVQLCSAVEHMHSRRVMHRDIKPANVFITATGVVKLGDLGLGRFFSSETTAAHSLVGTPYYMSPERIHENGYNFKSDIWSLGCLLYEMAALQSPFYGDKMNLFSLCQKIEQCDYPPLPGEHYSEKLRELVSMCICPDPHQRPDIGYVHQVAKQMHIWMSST

## C=CC(=O)Nc1cc(-c2cc(-c3cc4c([nH]3)CCNC4=O)ccn2)ccc1OC(F)(F)F [compound 11]
[1]; 10 nM
  inhibition at 0.01 µM: -2%
[1]; 100 nM
  inhibition at 0.1 µM: -5%
[1]; 1000 nM
  inhibition at 1 µM: -2%
[2]; 10 nM
  inhibition at 0.01 µM: 3%
[2]; 100 nM
  inhibition at 0.1 µM: 12%
[2]; 1000 nM
  inhibition at 1 µM: 11%
[3]; 10 nM
  inhibition at 0.01 µM: -6%
[3]; 100 nM
  inhibition at 0.1 µM: -1%
[3]; 1000 nM
  inhibition at 1 µM: 15%
[4]; 10 nM
  inhibition at 0.01 µM: -10%
[4]; 100 nM
  inhibition at 0.1 µM: 3%
[4]; 1000 nM
  inhibition at 1 µM: 31%
[5]; 10 nM
  inhibition at 0.01 µM: -4%
[5]; 100 nM
  inhibition at 0.1 µM: -5%
[5]; 1000 nM
  inhibition at 1 µM: -3%
[6]; 10 nM
  inhibition at 0.01 µM: -7%
[6]; 100 nM
  inhibition at 0.1 µM: 11%
[6]; 1000 nM
  inhibition at 1 µM: 20%
[7]; 10 nM
  inhibition at 0.01 µM: -17%
[7]; 100 nM
  inhibition at 0.1 µM: -12%
[7]; 1000 nM
  inhibition at 1 µM: 2%
[8]; 10 nM
  inhibition at 0.01 µM: 9%
[8]; 100 nM
  inhibition at 0.1 µM: 2%
[8]; 1000 nM
  inhibition at 1 µM: 22%
[9]; 10 nM
  inhibition at 0.01 µM: -9%
[9]; 100 nM
  inhibition at 0.1 µM: -14%
[9]; 1000 nM
  inhibition at 1 µM: -15%
[10]; 10 nM
  inhibition at 0.01 µM: 4%
[10]; 100 nM
  inhibition at 0.1 µM: 19%
[10]; 1000 nM
  inhibition at 1 µM: 27%
[11]; 10 nM
  inhibition at 0.01 µM: -3%
[11]; 100 nM
  inhibition at 0.1 µM: -3%
[11]; 1000 nM
  inhibition at 1 µM: -6%
[12]; 10 nM
  inhibition at 0.01 µM: -3%
[12]; 100 nM
  inhibition at 0.1 µM: 6%
[12]; 1000 nM
  inhibition at 1 µM: 4%
